From US9956293B2, “Targeted therapeutics” (Madrigal Pharmaceuticals, Inc., priority 2014, dated 2018)

Tests used:
[1] = system: HER2; assay: HER2 degradation in BT-474 cells (Example 3, Western blot / in-cell imaging); type: cell-based, human; conditions: BT-474 cells; for IC50: Homo sapiens, read-out: HER2 (IC50)
Protocol: BT-474 cells are plated in the interior 60 wells of a 96 well black clear bottom plate (20,000 cells/well) in DMEM medium, with DMEM media in the surrounding 36 wells, and incubated at 37° C. with 5% CO2 overnight. On the second day, concentration response curve source plates are produced (10 point, 3-fold dilution of compounds in DMSO) followed by a 1:30 dilution in an intermediate dilution plate containing DMEM. Compound is transferred from the intermediate plate to the cell plate at a dilution of 1:10.
Cells are then fixed in 4% phosphate-buffered paraformaldehyde for 30 minutes at room temperature and then permeabilized by washing five times with 0.1% Triton X-100 in PBS for 5 minutes at room temperature on a shaker. […] Cells are washed 5 times with 0.1% Tween-20 in PBS for 5 minutes at room temperature on a shaker and imaged on a LI-COR Odyssey imaging station. The raw data is normalized to DRAQ5 and the HER2 EC50 is calculated using XLfit™.

[2] = system: HER2; assay: HER2 degradation assay with BT-474 cell line (Example 12, FACS); type: cell-based; conditions: Homo sapiens
[3] = BT-474, SDC-TRAPs of the 41st table

## C=CCNC1=C2C[C@@H](C)C[C@H](OC)[C@H](O)[C@@H](C)/C=C(\C)[C@H](OC(N)=O)[C@@H](OC)/C=C\C=C(/C)C(=O)NC(=CC1=O)C2=O [17-AAG, reference compound]
[1]; overnight, 17-AAG at 0.5 μM
  degradation of HER2: partial degradation of HER2

## CC(C)c1cc(-c2nnc(O)n2-c2ccc3c(ccn3CCOCCNC(=O)CCCC(=O)Nc3cccc4c3CN(C3CCC(=O)NC3=O)C4=O)c2)c(O)cc1O (stereo not drawn) [SDC-TRAP-0015, N1-(2-(2-(5-(3-(2,4-dihydroxy-5-isopropylphenyl)-5-hydroxy-4H-1,2,4-triazol-4-yl)-1H-indol-1-yl)ethoxy)ethyl)-N5-(2-(2,6-dixopiperidin-3-yl)-1-oxoisoindolin-4-yl)glutaramide]
[2]; BT-474 cells
  IC50: 2.35 µM
[1]
  IC50: 2.35 µM

## CC(C)c1cc(-c2nnc(O)n2-c2ccc3c(ccn3CCC(=O)Nc3cccc4c3CN(C3CCC(=O)NC3=O)C4=O)c2)c(O)cc1O (stereo not drawn) [SDC-TRAP-0017, 3-(5-(3-(2,4-dihydroxy-5-isopropylphenyl)-5-hydroxy-4H-1,2,4-triazol-4-yl)-1H-indol-1-yl)-N-(2-(2,6-dioxopiperidin-3-yl)-1-oxoisoindolin-4-yl)propanamide]
[2]; BT-474 cells
  IC50: > 10 µM
[1]
  IC50: > 5 µM

## CC(C)c1cc(-c2nnc(O)n2-c2ccc3c(ccn3CCN(C)C(=O)CCCC(=O)Nc3cccc4c3CN(C3CCC(=O)NC3=O)C4=O)c2)c(O)cc1O (stereo not drawn) [SDC-TRAP-0018, N1-(2-(5-(3-(2,4-dihydroxy-5-isopropylphenyl)-5-hydroxy-4H-1,2,4-triazol-4-yl)-1H-indol-1-yl)ethyl)-N5-(2-(2,6-dioxopiperidin-3-yl)-1-oxoisoindolin-4-yl)-N1-methylglutaramide]
[2]; BT-474 cells
  IC50: 8.21 µM
[1]
  IC50: > 5 µM

## CC(C)c1cc(-c2nnc(O)n2-c2ccc3c(ccn3CCN(C)C(=O)c3ccc(CCc4c[nH]c5nc(N)[nH]c(=O)c45)cc3)c2)c(O)cc1O [SDC-TRAP-0019, 4-(2-(2-amino-4-oxo-4,7-dihydro-3H-pyrrolo[2,3-d]pyrimidin-5-yl)ethyl)-N-(2-(5-(3-(2,4-dihydroxy-5-isopropylphenyl)-5-hydroxy-4H-1,2,4-triazol-4-yl)-1H-indol-1-yl)ethyl)-N-methylbenzamide]
[2]; [3]
  IC50: 4.42 µM
[1]
  IC50: 4.42 µM

## CC(C)c1cc(-c2nnc(O)n2-c2ccc3c(ccn3CCOCCNC(=O)c3ccc(CCc4c[nH]c5nc(N)[nH]c(=O)c45)cc3)c2)c(O)cc1O [SDC-TRAP-0020, 4-(2-(2-amino-4-oxo-4,7-dihydro-3H-pyrrolo[2,3-d]pyrimidin-5-yl)ethyl)-N-(2-(2-(5-(3-(2,4-dihydroxy-5-isopropylphenyl)-5-hydroxy-4H-1,2,4-triazol-4-yl)-1H-indol-1-yl)ethoxy)ethyl)benzamide]
[2]; [3]
  IC50: > 5 µM
[1]
  IC50: > 5 µM

## CC(C)c1cc(-c2nnc(O)n2-c2ccc3c(ccn3CCN(C)C(=O)NCC(=O)Nc3cccc4c3CN(C3CCC(=O)NC3=O)C4=O)c2)c(O)cc1O (stereo not drawn) [SDC-TRAP-0021, 2-(3-(2-(5-(3-(2,4-dihydroxy-5-isopropylphenyl)-5-hydroxy-4H-1,2,4-triazol-4-yl)-1H-indol-1-yl)ethyl)-3-methylureido)-N-(2-(2,6-dioxopiperidin-3-yl)-1-oxoisoindolin-4-yl)acetamide]
[2]; BT-474 cells
  IC50: > 5 µM
[1]
  IC50: > 5 µM

## CCc1c2c(nc3ccc(OCC(=O)NCCn4ccc5cc(-n6c(O)nnc6-c6cc(C(C)C)c(O)cc6O)ccc54)cc13)-c1cc3c(c(=O)n1C2)COC(=O)C3(O)CC (stereo not drawn) [SDC-TRAP-0023, 2-((4,11-diethyl-4-hydroxy-3,14-dioxo-3,4,12,14-tetrahydro-1H-pyrano[3′,4′:6,7]indolizino[1,2b]quinolin-9-yl)oxy)-N-(2-(5-(3-(2,4-dihydroxy-5-isopropylphenyl)-5-hydroxy-4H-1,2,4-triazol-4-yl)-1H-indol-1-yl)ethyl)acetamide]
[2]; BT-474, SDC-TRAPs of the 43rd table
  IC50: 4.3 µM
[1]
  IC50: 4.3 µM
